Test results reported in ChEMBL document CHEMBL1142676, “Novel 2-alkylamino-1,4-benzoxazine derivatives as potent neuroprotective agents: structure-activity relationship studies” (J Med Chem, 2005).

Legend:
HT-22 [1] = experiment: In vitro safety index as ratio of MTC/PC50 was determined for HT-22 hippocampal cell cultures of mouse by MTT reduction assay; assay type: functional
HT-22 [2] = experiment: In vitro toxic concentration against HT-22 hippocampal cell cultures of mouse by MTT reduction assay; assay type: functional; conditions: read-out: TC50 (the source's name)
HT-22 [3] = experiment: In vitro protective concentration of compound for HT-22 hippocampal cell cultures of mouse against 2 mM L-homocysteic acid in MTT reduction assay; assay type: functional
HT-22 [4] = experiment: In vitro maximum tolerated concentration against HT-22 hippocampal cell cultures of mouse by MTT reduction assay; assay type: functional
HT-22 [5] = experiment: In vitro protective concentration of compound for HT-22 hippocampal cell cultures of mouse against 2 mM L-homocysteic acid in LDH assay; assay type: functional
HT-22 [6] = experiment: In vitro maximum tolerated concentration against HT-22 hippocampal cell cultures of mouse by LDH assay; assay type: functional
[7] = Partition coefficient (logP); assay type: physicochemical; conditions: octanol/water
HT-22 [8] = experiment: In vitro safety index as ratio of MTC/PC50 was determined for HT-22 hippocampal cell cultures of mouse by LDH assay; assay type: functional
HT-22 [9] = experiment: In vitro toxic concentration against HT-22 hippocampal cell cultures of mouse by LDH assay; assay type: functional; conditions: read-out: TC50 (the source's name)

SMILES	Safety index (HT-22 [1])	CC50 (HT-22 [2]) [µM]	PC50 (HT-22 [3]) [µM]	MTC (HT-22 [4]) [µM]	PC50 (HT-22 [5]) [µM]	MTC (HT-22 [6]) [µM]	logP [7]	Safety index (HT-22 [8])	CC50 (HT-22 [9]) [µM]
CC(C)(C)C1COc2c(NCCc3ccccc3)ccc(C(=O)c3ccccc3)c2N1 (configuration not stated)	>100	> 250	2.5	>250	4	>250	5.28	>62.5	> 250
O=C(c1ccccc1)c1ccc2c(c1O)NC(c1ccccc1)C(NCC(c1ccccc1)c1ccccc1)O2 (configuration not stated)	>25	> 250	10	>250	5	>250	–	>50	> 250
O=C(c1ccccc1)c1ccc2c(c1O)NC1(CCCCC1)C(NCC1CCCCC1)O2 (configuration not stated)	20.8	16.5	0.24	5	0.15	100	–	667	> 250
CC1(C)Nc2c(ccc(C(=O)c3ccccc3)c2O)OC1N1CCCCC1 (configuration not stated)	3.1	72	3.2	10	4.1	100	–	24.4	120
O=C(c1ccccc1)c1ccc2c(c1O)NC1(CCCCC1)C(N1CCOCC1)O2 (configuration not stated)	1.8	8.2	2.8	5	2.4	5	–	2.1	10.4
COC(CNC1Oc2ccc(C(=O)c3ccccc3)c(O)c2NC1c1ccccc1)OC (configuration not stated)	20	> 250	5	100	2.5	>250	–	>100	> 250
CC(C)CNC1Oc2ccc(C(=O)c3ccccc3)c(O)c2NC1c1ccccc1 (configuration not stated)	<1	108	10	5	10	10	–	1	79
O=C(c1ccccc1)c1ccc2c(c1O)NC1(CCCCC1)C(O)O2 (configuration not stated)	6.2	178	4	25	3	50	–	16.6	> 250
CC1(C)Nc2c(ccc(C(=O)c3ccccc3)c2O)OC1NCCc1ccccc1 (configuration not stated)	5	66	2	10	4.1	100	–	24.4	199
CC1(C)Nc2c(ccc(C(=O)c3ccccc3)c2O)OC1N1CCOCC1 (configuration not stated)	5.9	75	1.7	10	1.5	100	–	66.7	190
CC(C)CNC1Oc2ccc(C(=O)c3ccccc3)c(O)c2NC1(C)C (configuration not stated)	24.4	45	0.41	10	0.54	100	–	185	160
CC1(C)Nc2c(ccc(C(=O)c3ccccc3)c2O)OC1O (configuration not stated)	10.3	48	0.97	10	1.1	100	–	91	> 250
CN(CC1OCCO1)C1Oc2ccc(C(=O)c3ccccc3)c(O)c2NC1c1ccccc1 (configuration not stated)	200	> 250	0.5	100	1	>250	5.57	>250	> 250
O=C(c1ccccc1)c1ccc(NCc2ccccc2)c2c1NC1(CCCC1)CO2	>15.8	> 250	15.8	>250	14.4	>250	5.11	>17.4	> 250
CN(CC1OCCO1)C1Oc2ccc(C(=O)c3ccccc3)c(O)c2NC12CCCCC2 (configuration not stated)	2	25	2.4	5	2.2	25	–	11.4	> 250
O=C(c1ccccc1)c1ccc2c(c1O)NC1(CCCC1)C(NCC1CCCC1)O2 (configuration not stated)	3.6	27	1.39	5	0.82	25	–	30.5	53
CC1(C)Nc2c(ccc(C(=O)c3ccccc3)c2O)OC1NC1CCCCC1 (configuration not stated)	4.2	29	2.4	10	2.1	100	–	47.6	120
O=C(c1ccccc1)c1ccc2c(c1O)NC1(CCCCC1)C(N1CCCCC1)O2 (configuration not stated)	8.1	250	12.3	100	18.5	>250	–	>13.5	> 250
